The results in this text go back to a melting point compilation (Tetko et al.; mined from patent text by program, amines drawn as free bases though some values may be those of a salt).

`CCCCNN1C=c2cc(-c3c(Cl)cccc3Cl)c(=O)n(C)c2=NC1`: the melting point fell in the range of 184 to 186 °C.
`Cc1cc(Nc2ccnc(Cl)n2)ccc1F` registered a melting point of 130 to 131 °C.
Next, `NN=CNCCCCNC(=O)[C@@H]1CCCN1C(=O)[C@@H](CCC(N)=O)NS(=O)(=O)c1ccc2ccccc2c1`: 72 to 74 °C.
For the compound `CC(C)NCC(O)COc1ccc2c(=O)cc(-c3cc(OCc4ccccc4)cc(OCc4ccccc4)c3)oc2c1` (stereo not drawn), the melting point fell in the range of 173 to 174 °C.
The compound `CC12CC(N3CCCCC3)CCC1CCC1C2CCC2(C)C(O)C(N3CCCCC3)CC12` (stereo not drawn) showed a melting point of 176 to 181 °C.
As to `Cc1nccn1-c1cc(N)cc(C(F)(F)F)c1`, the melting point lay in the range of 127 to 131 °C.
`Cc1cc(C(Cc2ccc(CCCc3nc(-c4ccccc4)oc3C)cc2)C(=O)O)no1` (stereo not drawn) came in with a melting point of 75 to 80 °C.
Take `Cc1nc2n(C)nc(C)n2c(=O)c1CCO`: the melting point is 170 °C.
Consider `CC(C)(C)OC(=O)Nc1cc(Sc2ccc3c(C(=O)O)cccc3c2)ncn1`, for which the melting point lay in the range of 208 to 209 °C.
Next, `O=[N+]([O-])C=C1NCCCN1Cc1ccc(Cl)cc1`: 172 to 174 °C.
Next, `O=C(c1ccccc1[N+](=O)[O-])N1CCCc2ccccc21`: 155 °C.
`CC(=O)NC(=N[N+](=O)[O-])NCc1ccc(Cl)nc1` came in with a melting point of 125 to 126 °C.
Next, `CC(C)N1CCc2ccc(C(=O)CCC(=O)N3CCC(c4ccc(Cl)cc4)CC3)cc2CC1`: 139 to 140 °C; `OC(Cc1ccc(F)cc1)c1ccc(F)cc1` (stereo not drawn): 48 to 50 °C.
`Cc1ccc(O)c(C(=O)OCC=Cc2ccccc2)c1`: the melting point was in the range of 178 to 179 °C.
Next, `COc1c(Br)c(-c2ccc(C(C)(C)C)s2)cc2oc(=O)c(C)c(C)c12`: 170 °C; `OCc1cn(Cc2ccc3cc(OCc4ccccc4)ccc3c2)cc1-c1ccccc1`: 116 to 117 °C; `N#Cc1cnc2cc(O)ccc2c1Nc1ccc2cn[nH]c2c1`: greater than 250 °C.
The compound `CC1(C)CCC(C)(C)c2cc(OCc3ccc(C=O)cc3)ccc21` had a melting point of 102 to 104 °C.
Turning to `O=C(c1cc(C(F)(F)F)cc(C(F)(F)F)c1)N1CCC2(CC1)C(=O)NCN2c1cccc(Cl)c1`, the melting point was 235 to 236 °C.
`O=C(CBr)c1ccc2oc3ccc(C(=O)CBr)cc3c(=O)c2c1` yielded a melting point of 209 to 210 °C.
The compound `COc1ccccc1NC(=O)Nc1nc(NC(C)C)nc(N(CCC(=O)O)Cc2ccc(Cl)c(Cl)c2)n1` yielded a melting point of 95 to 101 °C.
For the compound `O=C1CCC(C(=O)O)(c2cccc3ccccc23)CC1`, the melting point lay within 174 to 177 °C.
With `CS(=O)(=O)Nc1cc(C(F)(F)F)ccc1-c1cc(Oc2ccc3cccnc3c2)ncn1`, the melting point lay in the range of 203 to 204 °C.
`CCOC(=O)C(C)OCc1cc2nc(Cl)ccc2n1S(=O)(=O)c1ccc2nc(NC(C)=O)sc2c1` (stereo not drawn) had a melting point of 100 to 102 °C.
On to `CN(CC(=O)N[C@@H](CCC(N)=O)C(N)=O)C(=O)OCc1ccccc1`, for which the melting point is 186 to 196 °C.
`COc1ccc(C2=NN(C3CCN(S(=O)(=O)c4ccc(C)cc4)CC3)C(=O)[C@H]3CC=CC[C@@H]23)cc1Cl` (relative stereo) yielded a melting point of 198 to 199 °C.
`CC(O)c1cc(Br)ccc1OCc1ccccc1` (stereo not drawn) showed a melting point of 76.7 °C.
Regarding `CC(CCC(=O)O)(c1ccc(OCc2ccc3ccccc3n2)c(Cl)c1)c1ccc(OCc2ccc3ccccc3n2)c(Cl)c1`, the melting point lay in the range of 91 to 94 °C.
Consider `Cc1c(-c2ccc(OCc3ccccc3)cc2)n(Cc2ccc(OCCBr)cc2)c2ccc(OCc3ccccc3)cc12`, for which the melting point lay within 131 to 134 °C.
Next, `O=C(Nc1cccc(S(=O)(=O)NC2CC2)c1)c1cnn2c(C(F)F)cc(-c3ccc(Cl)cc3)nc12`: 262 °C; `O=C(NCc1ccccc1)c1ccccc1-c1ccccc1CNS(=O)(=O)c1cccc(C(F)(F)F)c1`: 126 °C; `FC1=Cc2ccccc2Nc2ccccc21`: 69 to 72 °C.
With `CCS(=O)C1(Cl)CC2CC(=O)N2C1C(=O)OCc1ccccc1` (stereo not drawn), the melting point fell in the range of 123 to 125 °C.
Consider `Cn1cc(C(=O)NCc2ccc(Cl)cc2)c(=O)c2cc(CC3CCOCC3)cc(I)c21`, for which the melting point lay within 175 to 177 °C.
Take `CCCC(=O)NN=C(C)C1CCC=C(C)O1` (stereo not drawn): the melting point came out at 72.8 °C.
Take `O=C(Nc1ccc(C(=O)N2Cc3cccn3Cc3ccccc32)cc1)c1cc(Cl)ccc1Cl`: the melting point was 218 to 220 °C.
`COc1cc2c(cc1OC)-c1c(-c3nc(-c4ccccc4)no3)c(-c3cc(C)c(O)c(C)c3)c(C)n1CC2` returned a melting point of 191 to 193 °C.
As to `CCCn1c(=O)c(N=O)c(N)n(CCc2ccc([N+](=O)[O-])cc2)c1=O`, the melting point is 204 to 205 °C.
For the compound `O=C(O)c1cn(-c2ccc(F)cc2F)c2cc(Cl)c(F)cc2c1=O`, the melting point lay within 90 to 92 °C.
Next, `CCOC(=O)c1ncn2c1CN(C)C(=O)c1cc([N+](=O)[O-])ccc1-2`: 197 to 199 °C; `COc1ccc(-c2nc(C(F)F)oc2-c2ccc(OCCNC(N)=O)cc2)cc1`: 146 to 149 °C; `COC1(c2cc(F)cc(Sc3ccc(C(C)=O)cc3)c2)CCOCC1`: 141 °C.
`Oc1cc(-c2nn3c(c2Cl)CCCC3)c(F)cc1Cl` gave a melting point of 177 to 178 °C.
As to `O=C1c2ccccc2C(=O)N1CC(=O)N1c2ccccc2N(Cc2cccc(OCc3ccccc3)c2)C(=O)[C@H]2CCC[C@H]21` (relative stereo), the melting point lay in the range of 196 to 198 °C.
The compound `O=C(CSc1ncccn1)C12CC3CC(CC(C3)C1)C2` registered a melting point of 100 to 101 °C.
As for `Cc1cc(C)c(-c2nc(Oc3ccccc3)nc(Oc3ccccc3)n2)c(C)c1`, the melting point lay in the range of 135 to 143 °C.
With `C=C1CCn2c(CCc3ccccc3)nc3cccc1c32`, the melting point was 81 to 82.2 °C.
For `O=C(CCCCl)c1ccc2ccccc2c1`, the melting point fell in the range of 43 to 44 °C.
The compound `O=C1CC(c2cccc(O)c2)=Nc2ccc(N3CCCC3)cc21` yielded a melting point of 364 to 367 °C.
`COc1c(C2CCN(CCCCNC(=O)c3ccc(-c4ccc(Cl)cc4)nc3)CC2)ccc2c1CCCC2` came in with a melting point of 184 to 186 °C.
`CC(C)Cn1c(C(=O)O)c(-c2ccccc2F)c2cc(OCc3ccccc3)ccc2c1=O` showed a melting point of 178 to 179 °C.
As to `COC(=O)[C@H](Cc1ccc(NC(=O)c2c(Cl)cccc2Cl)cc1)NC(=O)c1ccc(-n2nnnc2NCc2cccc(O)c2)cc1Cl`, the melting point lay in the range of 155 to 158 °C.
In turn, `Cc1cnc(C(=O)NCCc2ccc(S(N)(=O)=O)cc2)cn1` had a melting point of 190 to 200 °C.
Regarding `CCOC(=O)Nc1ccccc1N1CC2(CCN(C)CC2)c2ccccc21`, the melting point fell in the range of 99.5 to 101 °C.
On to `CCOC(=O)c1c(CCn2ccnc2)nc2cc(OC)c(OC)cc2c1-c1ccc(OC)c(OC)c1`, for which the melting point was in the range of 173 to 174 °C.
In turn, `CCCCCCN(Cc1cccnc1)C(Nc1cc(C(C)(C)C)c(O)c(C(C)(C)C)c1)=C1C(=O)OC(C)(C)OC1=O` had a melting point of 134 to 136 °C.
Regarding `C#CCC(CC#C)NC(=O)C(F)(F)F`, the melting point was 55 to 57 °C.
`CCCCN(CCCC)c1ccc(C=Cc2ccc(C=CC3=C(C#N)C(=C(C#N)C#N)OC3(C)C)s2)c(OCc2ccccc2)c1` had a melting point of 218 to 219 °C.
Next, `O=S(=O)(NCC(O)(Cn1cncn1)c1ccc(F)cc1F)c1ccc(F)cc1` (stereo not drawn): 140 to 146 °C; `COC1CSC2=C(SC1)C(OC(=O)N1CCN(C)CC1)N(c1ccc3ccc(Cl)cc3n1)C2=O` (stereo not drawn): 228 °C.
As to `Cc1nc2ccccn2c(=O)c1CCN1CCC2C(C1)c1ccccc1N2Cc1ccccc1` (stereo not drawn), the melting point was determined as 145 °C.
Next, `CC1(C)CN(C2CCN(CCc3ccc(F)cc3)CC2)c2cc(CN)ccc21`: 131 to 133 °C.
With `C[C@H](CO)Cn1c2ccccc2c2ccccc21`, the melting point was 80 to 81 °C.
Take `CC(=O)N[C@@H](Cc1ccccc1)C[C@H](O)[C@H](Cc1ccccc1)N(Cc1ccccc1)Cc1ccccc1`: the melting point is 84 to 86 °C.
Next, `COC(=O)c1ccc(-c2cccc([N+](=O)[O-])c2)cc1`: 136 to 141 °C; `COC(=O)c1ccccc1NC(=O)CN1CCN(C(=O)c2ccc(OC)c(OC)c2)CC1`: 168 to 169 °C; `COc1ccc(N2CCOCC2)c2sc(NC(=O)C[C@H]3CC[C@@H](OC(C)=O)C3)nc12` (relative stereo): 172 to 173 °C.
`COC(=O)c1cc(-c2nc(CCl)c(C)o2)ccc1OS(C)(=O)=O` displayed a melting point of 160 to 161 °C.
On to `NC(Cc1ccc(O)c(O)c1)P(O)O` (stereo not drawn), for which the melting point fell in the range of 237 to 238 °C.
`Nc1c(C(=O)c2cccnc2N2CCOCC2)oc2ccc(Cl)cc12`: the melting point was in the range of 95 to 97 °C.
As for `CCCc1nc2cc3c(cc2[nH]1)NC(=O)C3(C)C(=O)OCC` (stereo not drawn), the melting point fell in the range of 258 to 261 °C.
The compound `CNC(=O)CC1=CSC2=C(C(=O)OC(C)C)C(C)CN12` (stereo not drawn) showed a melting point of 203 to 205 °C.
Next, `CCCCc1c(Cl)nc(N)nc1-c1ccsc1`: 154 to 155 °C; `COC(=O)COc1ccc(NC(=O)CCCCCO)cc1`: 87.5 to 90.4 °C.
Next, `CC(=O)Nc1ccc2ncnc(Nc3cccc(Cl)c3)c2c1`: 260 to 262 °C; `CC(C)NC(=O)N1CCc2[nH]cnc2C1C(C)C` (stereo not drawn): 202 °C.
For `O=C(CCl)c1ccc2c(c1)CCO2`, the melting point lay within 85 to 87 °C.
`CCCOCCOc1cccc(-c2ccc3c(c2)C=C(C(=O)Nc2ccc(CN(C)C4CCOCC4)cc2)CCS3(=O)=O)c1` showed a melting point of 166 to 167 °C.
In turn, `O=C(O)c1ccc(NCc2cccc(C(F)(F)F)c2)cn1` yielded a melting point of 216 to 217 °C.
Next, `CC1(C)CCC(C)(C)c2cc(-c3cc(-c4ccc(C(=O)O)c(O)c4)ccc3-c3ccccc3)ccc21`: 134 to 136 °C.
The compound `CC(=O)ON1C(C)(C)CC(OC(=O)c2ccccc2)CC1(C)C` registered a melting point of 110 to 112 °C.
Compound `C=CCN(C(=O)C(C#N)=CNC(=N)N1CC(C)(C)NC1=O)c1cccc(C(F)(F)F)c1` returned a melting point of 184 to 185 °C.
